Laboratory results from publication PMC7238130, “Improved Dissolution and Pharmacokinetics of Abiraterone through KinetiSol® Enabled Amorphous Solid Dispersions” (Pharmaceutics, 2020).
Converted amounts (≈) assume the structure as drawn.

Assays:
[1] = parameters: method as in doi:10.1021/acs.jced.8b00566; conditions: cited from earlier work
[2] = cited from earlier work; for FaSSIF solubility (converted): conversion of the µM value
[3] = In vitro, non-sink, gastric transfer dissolution (0.01 N HCl then FaSSIF); assay type: physicochemical
Procedure: An in vitro, non-sink, gastric transfer dissolution method was developed to analyze the dissolution of abiraterone API, the generic abiraterone acetate tablets, the binary KSDs, to select ternary component for KSDs, as well as to analyze the dissolution of the ternary KSDs. For the dissolution analysis of abiraterone API and the binary and ternary KSDs, the samples (equivalent to 31 mg of abiraterone API) were loaded in an Erlenmeyer flask (dissolution vessel) containing 35 mL of 0.01N HCl (pH 2.0), placed in an incubator–shaker (Excella E24 (New Brunswick Scientific, Edison, NJ, USA)) set to 37 °C and a rotational speed of 180 rpm. After 30 min, 35 mL of FaSSIF (prepared in a 50 mM phosphate buffer at pH 6.8) was added to the dissolution vessel. At predetermined time points, samples were drawn from the dissolution vessel and centrifuged using an ultracentrifuge at 92,000 rpm for 90 s (Airfuge™, Beckman, Indianapolis, IN, USA). The supernatants were further diluted using the HPLC diluent and analyzed using the respective HPLC methods mentioned above. For the generic abiraterone acetate tablets, the whole tablet was analyzed, and the dissolution media volumes were scaled accordingly. For the selection of the ternary component, 35 mg of secondary polymer candidates were added in 35 mL of 0.01 N HCl (pH 2.0), and the dissolution of the binary KSD was conducted using the method described above. The area under the drug dissolution curve (AUDC) was calculated using the linear trapezoidal method.
For dissolution testing, we employed a two-stage, non-sink, gastric transfer dissolution method in which the sample is first exposed to acidic media, simulating fasted stomach content, followed by exposure to neutral-to-basic media, simulating fasted intestinal content.

[4] = parameters: method as in doi:10.1021/acs.jced.8b00566; conditions: cited from earlier work; remark: listed apart in the source

Compound	BCS (Biopharmaceutical Classification System) class [1]	permeability [1]	FaSSIF solubility [2] [µM]	FaSSIF solubility (converted) [2]	Percent Rel. AUDC0.01 N HCl (Relative to Lot 5 KSD) ([3]; 0.01 N HCl stage, 35 mg secondary polymer added externally where stated) [%]	Percent Rel. AUDCTotal (Relative to Lot 5 KSD) ([3]; 35 mg secondary polymer added externally to 35 mL 0.01 N HCl where stated) [%]	Percent Rel. AUDCFaSSIF (Relative to Lot 5 KSD) ([3]; FaSSIF stage, 35 mg secondary polymer added externally where stated) [%]	solubility ([3]; pH 6.8, FaSSIF stage of gastric transfer dissolution, read-out: average drug concentration (solubility) in FaSSIF media) [µg/mL]	water solubility [4] [µg/mL]
C[C@]12CC[C@H](O)CC1=CC[C@@H]1[C@@H]2CC[C@]2(C)C(c3cccnc3)=CC[C@@H]12 [Abiraterone API, Abiraterone]	Class IV	low	12.7 ± 4.2	~ 4.43 µg/mL	1.8	8.4	46.2	11.3 (≈ 32.4 µM)	3.05 (≈ 8.73 µM)
CC(=O)O[C@H]1CC[C@@]2(C)C(=CC[C@@H]3[C@@H]2CC[C@]2(C)C(c4cccnc4)=CC[C@@H]32)C1 [abiraterone acetate, Abiraterone acetate]	–	–	64.6 ± 5.2	~ 25.29 µg/mL	–	–	–	–	–
